Reference: patent US20220184071A1, “GEPOTIDACIN FOR USE IN THE TREATMENT OF BACTERIAL URINARY TRACT INFECTIONS” (GlaxoSmithKline Intellectual Property Development Limited, priority 2019, published 2022)
≈ marks a conversion by molar mass, not a printed value. Where two headings read alike, the source gives them in different places.

Tests used:
[1] = system: Proteus (Proteus mirabilis, Proteus penneri, Proteus hauseri); assay: MIC by CLSI agar dilution, Example 1 Method 2; type: cell-based; conditions: n = 56
Method: Antimicrobial activity was determined in a second study by […] using the CLSI recommended procedure in serial two-fold dilutions and the minimum inhibitory concentration (MIC) was determined as the lowest concentration of the compound that inhibited visible growth.
MICs were determined according to CLSI agar dilution guidelines.

C. koseri = assay: Phase IIa baseline uropathogen susceptibility testing (CLSI broth microdilution); type: cell-based, Citrobacter koseri; conditions: Citrobacter koseri; Participant 1; read-out: GEP MIC
Method: (§1) This phase IIa single center study evaluated the safety, tolerability, pharmacokinetics, and efficacy of oral gepotidacin 1500 mg BID for 5 days in female subjects with acute cystitis. Clean catch mid-stream urine specimens were obtained for quantitative culture by standard methods. Urine samples were taken from all participants pre-treatment (baseline) and at all post-baseline visits. All urine samples were sent to a central laboratory (PPD Global Clinical Laboratories, Highland Heights, Ky., USA) for Gram stain, quantitative culture, pathogen identification and susceptibility testing. See FIG. 1 for participant disposition and study outline.
(§2) Susceptibility testing by CLSI broth microdilution and gradient diffusion (fosfomycin only) was conducted (CLSI, 2015, Methods for dilution antimicrobial susceptibility tests for bacteria that grow aerobically; approved standard-tenth edition; and CLSI, 2018. Performance Standards for Antimicrobial Susceptibility Testing; Twenty-seventh Informational Supplement M100-S28). Inclusion in the microbiological intent-to-treat population (micro-ITT), required growth of a qualifying baseline uropathogen (≥10^5 CFU/mL). See FIG. 2 for the baseline algorithm.

[2] = system: Citrobacter freundii complex; assay: Phase IIa non-qualifying baseline uropathogen MIC; type: cell-based; conditions: baseline uropathogen recovered at <10^5 CFU/mL
Method: as §1, §2

[3] = system: coagulase-negative staphylococci; assay: MIC by CLSI broth microdilution, Example 5 Method 1; type: cell-based
Method: (§3) Gepotidacin was tested against 101 coagulase-negative staphylococci and 105 viridans streptococci in serial two-fold dilutions and the minimum inhibitory concentration (MIC) was determined as the lowest concentration of the compound that inhibited visible growth. All of the clinical isolates were collected in 2009-2012 from patient infections from North America, Europe, Latin America and Asia-Pacific medical centers and were mainly obtained from patients with documented nosocomial and community-acquired respiratory tract infections, bloodstream infections and skin and skin structure infections. Ceftriaxone, meropenem, penicillin, levofloxacin, moxifloxacin and linezolid were included as comparators when testing the viridans streptococci isolates. Oxacillin, levofloxacin, moxifloxacin and linezolid, were included as comparators when testing the coagulase-negative staphylococci isolates. MICs were determined by broth microdilution according to CLSI methods.

viridans streptococci = assay: as above; type: cell-based; conditions: 105 isolates
Method: as §3

Bacteroides spp. = assay: MIC by CLSI agar dilution, Example 6 Method 1; type: cell-based; conditions: for Gepotidacin MIC range: agar dilution
Method: (§4) Antimicrobial activity was determined by agar dilution using the Clinical and Laboratory Standards Institute (CLSI) recommended procedure.
(§5) The compounds were tested in serial two-fold dilutions and the minimum inhibitory concentration (MIC) was determined as the lowest concentration of the compound that inhibited visible growth. Gepotidacin was tested against 333 gram-negative anaerobic and 203 gram-positive anaerobic isolates collected from clinical samples in North America and Europe from 2000 to 2017; the majority collected from 2013 to 2016.
(§6) Ceftriaxone, clindamycin, imipenem, metronidazole, moxifloxacin and piperacillin/tazobactam were included as comparators.
(§7) Additional analysis was performed from the results of the study described in Method 1 above, to determine the in vitro activity of gepotidacin against gram-negative and gram-positive anaerobic organisms with resistance to ceftriaxone, clindamycin, imipenem, metronidazole, moxifloxacin and piperacillin/tazobactam.

Bifidobacterium spp. = assay: MIC by CLSI agar dilution, Example 6 Method 1; type: cell-based
Method: as §4, §5, §6, §7

Clostridium difficile = assay: MIC by CLSI agar dilution, Example 6 Method 1; type: cell-based
Method: as §4, §5, §6, §7

Eggerthella lenta = assay: MIC by CLSI agar dilution, Example 6 Method 1; type: cell-based
Method: as §4, §5, §6, §7

Eubacterium spp. = assay: MIC by CLSI agar dilution, Example 6 Method 1; type: cell-based
Method: as §4, §5, §6, §7

Fusobacterium spp. = assay: MIC by CLSI agar dilution, Example 6 Method 1; type: cell-based
Method: as §4, §5, §6, §7

Lactobacillus spp. = assay: MIC by CLSI agar dilution, Example 6 Method 1; type: cell-based
Method: as §4, §5, §6, §7

[4] = system: Peptostreptococcus anaerobius; assay: MIC by CLSI agar dilution, Example 6 Method 1; type: cell-based; conditions: for Gepotidacin MIC range: 3 isolates
Method: as §4, §5, §6, §7

Porphyromonas spp. = assay: MIC by CLSI agar dilution, Example 6 Method 1; type: cell-based; conditions: 26 isolates, read-out: Gepotidacin MIC90
Method: as §4, §5, §6, §7

Prevotella spp. = assay: MIC by CLSI agar dilution, Example 6 Method 1; type: cell-based
Method: as §4, §5, §6, §7

[5] = system: Sutterella wadsworthensis; assay: MIC by CLSI agar dilution, Example 6 Method 1; type: cell-based
Method: as §4, §5, §6, §7

Veillonella spp. = assay: MIC by CLSI agar dilution, Example 6 Method 1; type: cell-based
Method: as §4, §5, §6, §7

[6] = system: gram-negative and gram-positive anaerobes tested; assay: MIC by CLSI agar dilution, Example 6 Method 1; type: cell-based
Method: as §4, §5, §6, §7

**Q.** What does the source list for `O=c1ccc2ncc(=O)n3c2n1C[C@H]3CN1CCC(NCc2cc3c(cn2)OCCC3)CC1` [gepotidacin, (2R)-2-({4-[(3,4-dihydro-2H-pyrano[2,3-c]pyridin-6-ylmethyl)amino]-1-piperidinyl}methyl)-1,2-dihydro-3H,8H-2a,5,8a-triazaacenaphthylene-3,8-dione]?
**A.** MIC50 [1]: 8 µg/mL (≈ 17.8 µM); MIC90 [1]: 32 µg/mL (≈ 71.3 µM); Number of Isolates at Gepotidacin MIC 0.5 mg/L [1]: 3; Number of Isolates at Gepotidacin MIC 1 mg/L [1]: 4; Number of Isolates at Gepotidacin MIC 2 mg/L [1]: 11; Number of Isolates at Gepotidacin MIC 4 mg/L [1]: 9; Number of Isolates at Gepotidacin MIC 8 mg/L [1]: 10; Number of Isolates at Gepotidacin MIC ≥16 mg/L [1]: 19; MIC (C. koseri): 0.5 µg/mL (≈ 1.11 µM); MIC [2]: 1 µg/mL (≈ 2.23 µM); MIC90 ([3]; 101 isolates): 0.5 µg/mL (≈ 1.11 µM); MIC90 fold lower than the comparators tested ([3]; coagulase-negative staphylococci and viridans streptococci, except meropenem and moxifloxacin against viridans group streptococci): 2 to 64 fold; MIC90 (viridans streptococci): 0.5 µg/mL (≈ 1.11 µM); MIC90 (Bacteroides spp.; Bacteroides, 191 isolates, read-out: Gepotidacin MIC90): 4 µg/mL (≈ 8.92 µM); Gepotidacin MIC range (Bacteroides spp.; ceftriaxone R, 100 isolates): ≤0.015 to 32 µg/mL; Gepotidacin MIC range (Bacteroides spp.; clindamycin R, 53 isolates): ≤0.015 to 32 µg/mL; Gepotidacin MIC range (Bacteroides spp.; moxifloxacin R, 32 isolates): 0.25 to 32 µg/mL; MIC90 (Bifidobacterium spp.; Bifidobacterium, 26 isolates, read-out: Gepotidacin MIC90): 0.5 µg/mL (≈ 1.11 µM); Gepotidacin MIC range (Bifidobacterium spp.; moxifloxacin R, 3 isolates): 0.125 to 0.5 µg/mL; Gepotidacin MIC range (Clostridium difficile; Clostridioides difficile ceftriaxone R, 48 isolates): 0.5 to 4 µg/mL; Gepotidacin MIC range (Clostridium difficile; Clostridioides difficile clindamycin R, 23 isolates): 0.5 to 2 µg/mL; Gepotidacin MIC range (Clostridium difficile; Clostridioides difficile imipenem R, 2 isolates): 1 µg/mL; Gepotidacin MIC range (Clostridium difficile; Clostridioides difficile moxifloxacin R, 37 isolates): 0.5 to 8 µg/mL; MIC90 (Clostridium difficile; Clostridioides difficile, 100 isolates, read-out: Gepotidacin MIC90): 2 µg/mL (≈ 4.46 µM); MIC90 (Eggerthella lenta; Eggerthella lenta, 21 isolates, read-out: Gepotidacin MIC90): 4 µg/mL (≈ 8.92 µM); Gepotidacin MIC range (Eggerthella lenta; ceftriaxone R, 19 isolates): 0.06 to 32 µg/mL; Gepotidacin MIC range (Eggerthella lenta; clindamycin R, 3 isolates): 1 to 4 µg/mL; Gepotidacin MIC range (Eggerthella lenta; moxifloxacin R, 6 isolates): 1 to 32 µg/mL; MIC90 (Eubacterium spp.; Eubacterium, 31 isolates, read-out: Gepotidacin MIC90): 2 µg/mL (≈ 4.46 µM); Gepotidacin MIC range (Eubacterium spp.; moxifloxacin R, 3 isolates): 0.25 to 2 µg/mL; MIC90 (Fusobacterium spp.; Fusobacterium, 25 isolates, read-out: Gepotidacin MIC90): 2 µg/mL (≈ 4.46 µM); Gepotidacin MIC range (Fusobacterium spp.; clindamycin R, 2 isolates): 0.25 to 2 µg/mL; MIC90 (Lactobacillus spp.; Lactobacillus, 91 isolates, read-out: Gepotidacin MIC90): 1 µg/mL (≈ 2.23 µM); Gepotidacin MIC range (Lactobacillus spp.; clindamycin R, 3 isolates): 0.03 to 1 µg/mL; Gepotidacin MIC range (Lactobacillus spp.; imipenem R, 27 isolates): 0.03 to 1 µg/mL; MIC90 ([4]; Peptostreptococcus anaerobius, 25 isolates, read-out: Gepotidacin MIC90): 0.03 µg/mL (≈ 0.0669 µM); Gepotidacin MIC range ([4]; clindamycin R): ≤0.015 to 0.03 µg/mL; Gepotidacin MIC range ([4]; moxifloxacin R): 0.03 µg/mL; MIC90 (Porphyromonas spp.): 1 µg/mL (≈ 2.23 µM); MIC90 (Prevotella spp.; Prevotella, 30 isolates, read-out: Gepotidacin MIC90): 4 µg/mL (≈ 8.92 µM); Gepotidacin MIC range (Prevotella spp.; ceftriaxone R, 6 isolates): 0.25 to 2 µg/mL; Gepotidacin MIC range (Prevotella spp.; clindamycin R, 7 isolates): 0.25 to 4 µg/mL; MIC90 ([5]; Sutterella wadsworthensis, 10 isolates, read-out: Gepotidacin MIC90): 1 µg/mL (≈ 2.23 µM); Gepotidacin MIC range ([5]; metronidazole R, 4 isolates): 0.5 to 1 µg/mL; MIC90 (Veillonella spp.; Veillonella, 25 isolates, read-out: Gepotidacin MIC90): 0.12 µg/mL (≈ 0.268 µM); Gepotidacin MIC range (Veillonella spp.; clindamycin R, 5 isolates): 0.125 µg/mL; Gepotidacin MIC range (Veillonella spp.; moxifloxacin R, 3 isolates): ≤0.015 to 0.03 µg/mL; MIC [6]: ≤ 2 µg/mL; MIC90 ([6]; 333 gram-negative and 203 gram-positive anaerobic isolates, per pathogen group): ≤ 4 µg/mL; MIC ([6]; Bacteroides caccae, read-out: MICs): ≤ 4 µg/mL
